Three compounds from ChEMBL document CHEMBL1158742, “Production of 8-demethylgeldanamycin and 4,5-epoxy-8-demethylgeldanamycin from a recombinant strain of Streptomyces hygroscopicus” (J Nat Prod, 2005) can be followed below.

For this assay, the system named is SK-BR-3. Nature of the assay: Cytotoxicity against human SKBR3 cells after 72 hrs by celltiter-Glo assay. It is filed as functional, cell-based. The settings on record: SK-BR-3, 72 h. (In ATP-based viability assays light output follows the ATP content of the culture.)

As for `COC1=C2C[C@@H](C)C[C@H](OC)[C@H](O)[C@@H](C)/C=C/[C@H](OC(N)=O)[C@@H](OC)/C=C\C=C(/C)C(=O)NC(=CC1=O)C2=O`, the midpoint of inhibition, the IC50, lay at 481 nM.
Regarding `C=CCNC1=C2C[C@@H](C)C[C@H](OC)[C@H](O)[C@@H](C)/C=C(\C)[C@H](OC(N)=O)[C@@H](OC)/C=C\C=C(/C)C(=O)NC(=CC1=O)C2=O` [TANESPIMYCIN], 27 nM corresponded to half-maximal inhibition (IC50).
As for `COC1=C2C[C@@H](C)C[C@H](OC)[C@H](O)[C@@H](C)/C=C/[C@H](OC(N)=O)[C@@H](OC)[C@@H]3O[C@@H]3/C=C(\C)C(=O)NC(=CC1=O)C2=O`, the figure is 280 nM.
